Experimental data: patent US20210032291A1, “Compstatin Analogs With Improved Pharmacokinetic Properties” (The Trustees of the University of Pennsylvania, priority 2011, published 2021)
Like-named read-outs stand apart in the source and are kept apart here. Bridge positions count the residues as written; N and C are the ends. Square brackets hold non-standard residues; d marks the D form. Peptide text beside a SMILES is read from it. Trp(1-Me) = Cn1cc(C[C@H](N)C(=O)O)c2ccccc21; NMeI = CC[C@H](C)[C@H](NC)C(=O)O; Orn = NCCC[C@H](N)C(=O)O; Sar = CNCC(=O)O

Biological target: T1, C3b (Homo sapiens, UniProt P01024)
T1 construct: Biotinylated C3b was captured site-specifically on a streptavidin chip
T1 sequence (P01024 23-667 limits assumed): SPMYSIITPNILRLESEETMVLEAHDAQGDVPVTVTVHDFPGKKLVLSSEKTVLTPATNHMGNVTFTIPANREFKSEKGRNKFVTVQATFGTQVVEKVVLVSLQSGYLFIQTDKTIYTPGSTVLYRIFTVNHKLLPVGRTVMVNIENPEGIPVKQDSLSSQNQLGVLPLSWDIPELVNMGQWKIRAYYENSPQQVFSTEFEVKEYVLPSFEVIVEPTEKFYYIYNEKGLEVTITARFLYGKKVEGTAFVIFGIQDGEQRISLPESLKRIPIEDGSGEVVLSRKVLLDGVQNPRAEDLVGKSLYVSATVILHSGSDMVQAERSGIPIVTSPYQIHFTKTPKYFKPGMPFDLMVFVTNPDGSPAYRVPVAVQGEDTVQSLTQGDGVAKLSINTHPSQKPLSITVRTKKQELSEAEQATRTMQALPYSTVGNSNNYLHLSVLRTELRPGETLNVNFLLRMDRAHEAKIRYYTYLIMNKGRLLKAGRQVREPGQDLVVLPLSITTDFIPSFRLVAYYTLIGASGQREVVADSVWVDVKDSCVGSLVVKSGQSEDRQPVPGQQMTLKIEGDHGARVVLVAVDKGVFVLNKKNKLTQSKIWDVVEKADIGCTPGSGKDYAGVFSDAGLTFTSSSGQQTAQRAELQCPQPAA
T1 sequence (P01024 749-1663 partner limits assumed): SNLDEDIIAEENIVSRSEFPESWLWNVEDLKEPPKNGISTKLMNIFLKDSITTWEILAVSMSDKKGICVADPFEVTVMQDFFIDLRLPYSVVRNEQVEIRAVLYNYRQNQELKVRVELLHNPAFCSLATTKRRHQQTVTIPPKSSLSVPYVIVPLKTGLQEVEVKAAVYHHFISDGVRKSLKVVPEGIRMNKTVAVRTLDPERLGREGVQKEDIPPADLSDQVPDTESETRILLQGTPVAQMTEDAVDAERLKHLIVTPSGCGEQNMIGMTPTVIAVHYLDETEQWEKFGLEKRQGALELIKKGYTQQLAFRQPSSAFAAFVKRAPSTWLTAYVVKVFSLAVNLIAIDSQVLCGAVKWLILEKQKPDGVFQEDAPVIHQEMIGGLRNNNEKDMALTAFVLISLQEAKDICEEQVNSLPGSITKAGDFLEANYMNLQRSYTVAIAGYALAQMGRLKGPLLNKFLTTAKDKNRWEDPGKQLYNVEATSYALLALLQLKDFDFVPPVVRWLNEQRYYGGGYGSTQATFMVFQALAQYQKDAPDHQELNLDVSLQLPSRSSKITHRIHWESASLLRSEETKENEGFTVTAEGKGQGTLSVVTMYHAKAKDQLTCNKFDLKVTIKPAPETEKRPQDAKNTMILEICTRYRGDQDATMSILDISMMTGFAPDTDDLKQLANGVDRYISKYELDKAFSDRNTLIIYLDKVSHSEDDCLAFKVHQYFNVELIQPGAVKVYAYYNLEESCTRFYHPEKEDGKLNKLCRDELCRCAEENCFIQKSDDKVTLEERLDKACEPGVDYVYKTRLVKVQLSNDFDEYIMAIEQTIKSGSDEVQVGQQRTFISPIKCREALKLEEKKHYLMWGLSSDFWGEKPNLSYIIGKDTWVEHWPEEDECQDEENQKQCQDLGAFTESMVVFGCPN
Assay: SPR kinetic analysis of binding to immobilized C3b (Biacore, single cycle kinetics)
Settings: for Kd: read-out: KD: binding constant from SPR; for koff: read-out: kd: dissociation rate
Experimental: SPR analysis. The interaction of the compstatin analogs with C3b was characterized using a Biacore 3000 instrument (GE Healthcare, Corp., Piscataway, N.J.). The running buffer was PBS, pH 7.4 (10 mM sodium phosphate, 150 mM NaCl) with 0.005% Tween-20. Biotinylated C3b was captured site-specifically on a streptavidin chip at about 3000 and 5000 RU density; two untreated flow cells were used as reference surface. For kinetic analysis, sets of five increasing concentrations of a particular compound were injected over the chip surface one after the other in a single cycle. […] Processed biosensor data were globally fitted to a 1:1 Langmuir binding model (kindly provided by GE Helthcare), and the equilibrium dissociation constant (KD) was calculated from the equation KD=kd/ka. Each assay was performed at least twice.

ka: association rate (Table 2, Cp40-based analogs)	Kd (Table 2, Cp40-based analogs)	koff (Table 2, Cp40-based analogs)	SMILES	ka: association rate (Table 1, N-terminal analogs)	Kd (Table 1, N-terminal analogs)	koff (Table 1, N-terminal analogs)
0.9 ± 0.1 10^6/Ms	3 ± 0.4 nM	0.0028 ± 0.0001 s⁻¹	CC[C@H](C)[C@H](NC(=O)[C@H](N)Cc1ccc(O)cc1)C(=O)N[C@H]1CSSC[C@@H](C(=O)N(C)[C@H](C(N)=O)[C@@H](C)CC)NC(=O)[C@H](CCCNC(=N)N)NC(=O)[C@H](Cc2c[nH]cn2)NC(=O)[C@H](C)NC(=O)CN(C)C(=O)[C@H](Cc2c[nH]c3ccccc23)NC(=O)[C@H](CC(N)=O)NC(=O)[C@H](CCC(N)=O)NC(=O)[C@H](Cc2cn(C)c3ccccc23)NC(=O)[C@H](C(C)C)NC1=O [Cp40 (6Asn)] (H-[dY]ICV[Trp(1-Me)]QNW[Sar]AHRC[NMeI]-NH2; disulfide 3-13)			
2.0 ± 0.4 10^6/Ms	1.5 ± 0.4 nM	0.0028 ± 0.0006 s⁻¹	CC[C@H](C)[C@H](NC(=O)[C@H](N)Cc1ccc(O)cc1)C(=O)N[C@H]1CSSC[C@@H](C(=O)N(C)[C@H](C(N)=O)[C@@H](C)CC)NC(=O)[C@H](CCCN)NC(=O)[C@H](Cc2c[nH]cn2)NC(=O)[C@H](C)NC(=O)CN(C)C(=O)[C@H](Cc2c[nH]c3ccccc23)NC(=O)[C@H](CC(N)=O)NC(=O)[C@H](CCC(N)=O)NC(=O)[C@H](Cc2cn(C)c3ccccc23)NC(=O)[C@H](C(C)C)NC1=O [Cp40 (11Orn 6Asn)] (H-[dY]ICV[Trp(1-Me)]QNW[Sar]AH[Orn]C[NMeI]-NH2; disulfide 3-13)			
2.5 ± 0.1 10^6/Ms	0.8 ± 0.1 nM	0.002 ± 0.0001 s⁻¹	CC[C@H](C)[C@H](NC(=O)[C@H](N)Cc1ccc(O)cc1)C(=O)N[C@H]1CSSC[C@@H](C(=O)N(C)[C@H](C(N)=O)[C@@H](C)CC)NC(=O)[C@H](CCCN)NC(=O)[C@H](Cc2c[nH]cn2)NC(=O)[C@H](C)NC(=O)CN(C)C(=O)[C@H](Cc2c[nH]c3ccccc23)NC(=O)[C@H](CC(=O)O)NC(=O)[C@H](CCC(N)=O)NC(=O)[C@H](Cc2cn(C)c3ccccc23)NC(=O)[C@H](C(C)C)NC1=O [Cp40 (11Orn)] (H-[dY]ICV[Trp(1-Me)]QDW[Sar]AH[Orn]C[NMeI]-NH2; disulfide 3-13)			

The next lines start with the compound.

SMILES	ka: association rate (Table 2, Cp40-based analogs)	Kd (Table 2, Cp40-based analogs)	koff (Table 2, Cp40-based analogs)	ka: association rate (Table 1, N-terminal analogs)	Kd (Table 1, N-terminal analogs)	koff (Table 1, N-terminal analogs)
CC[C@H](C)[C@H](NC(=O)[C@@H](N)Cc1ccccc1)C(=O)N[C@H]1CSSC[C@@H](C(=O)N(C)[C@H](C(N)=O)[C@@H](C)CC)NC(=O)[C@H](CCCNC(=N)N)NC(=O)[C@H](Cc2c[nH]cn2)NC(=O)[C@H](C)NC(=O)CN(C)C(=O)[C@H](Cc2c[nH]c3ccccc23)NC(=O)[C@H](CC(=O)O)NC(=O)[C@H](CCC(N)=O)NC(=O)[C@H](Cc2cn(C)c3ccccc23)NC(=O)[C@H](C(C)C)NC1=O [compound 5] (H-FICV[Trp(1-Me)]QDW[Sar]AHRC[NMeI]-NH2; disulfide 3-13)				2.1 ± 0.4 10^6/Ms	1.6 ± 0.2 nM	0.0033 ± 0.0003 s⁻¹
CC[C@H](C)[C@H](NC(=O)[C@@H](N)CCCNC(=N)N)C(=O)N[C@H]1CSSC[C@@H](C(=O)N(C)[C@H](C(N)=O)[C@@H](C)CC)NC(=O)[C@H](CCCNC(=N)N)NC(=O)[C@H](Cc2c[nH]cn2)NC(=O)[C@H](C)NC(=O)CN(C)C(=O)[C@H](Cc2c[nH]c3ccccc23)NC(=O)[C@H](CC(=O)O)NC(=O)[C@H](CCC(N)=O)NC(=O)[C@H](Cc2cn(C)c3ccccc23)NC(=O)[C@H](C(C)C)NC1=O [compound 6] (H-RICV[Trp(1-Me)]QDW[Sar]AHRC[NMeI]-NH2; disulfide 3-13)				1.7 ± 0.2 10^6/Ms	1.7 ± 0.2 nM	0.0029 ± 0.0002 s⁻¹
CC[C@H](C)[C@H](NC(=O)[C@@H](N)Cc1c[nH]c2ccccc12)C(=O)N[C@H]1CSSC[C@@H](C(=O)N(C)[C@H](C(N)=O)[C@@H](C)CC)NC(=O)[C@H](CCCNC(=N)N)NC(=O)[C@H](Cc2c[nH]cn2)NC(=O)[C@H](C)NC(=O)CN(C)C(=O)[C@H](Cc2c[nH]c3ccccc23)NC(=O)[C@H](CC(=O)O)NC(=O)[C@H](CCC(N)=O)NC(=O)[C@H](Cc2cn(C)c3ccccc23)NC(=O)[C@H](C(C)C)NC1=O [compound 7] (H-WICV[Trp(1-Me)]QDW[Sar]AHRC[NMeI]-NH2; disulfide 3-13)				1.6 ± 0.1 10^6/Ms	2.2 ± 0.2 nM	
